From article PMC3395220 (Journal of Medicinal Chemistry, 2012)

Experiments:
[1] = system: COLO-205 colon cancer cells; test: Subcutaneous COLO-205 colon xenograft; format: in vivo, athymic nu/nu mice; conditions: iv q2dx10 at 10 mg/Kg and q3dx10 at 20 mg/Kg
SK-MEL-5 = format: cell-based, human; conditions: 10^Δ2-x, relative to compound 2
SF-295 = format: cell-based, human; conditions: 10^Δ2-x, relative to compound 2
UO-31 = format: cell-based, human; conditions: 10^Δ2-x, relative to compound 2
[2] = system: panel of 12 tumor cell lines implanted in mice; test: NCI hollow fiber assay; format: in vivo
UACC-62 = format: cell-based, human; conditions: 10^Δ2-x, relative to compound 2
[3] = CD-1, mouse, in vivo
SK-MEL2 = format: cell-based, human; conditions: 10^Δ2-x, relative to compound 2
HCT-15 = format: cell-based, human; conditions: 10^Δ2-x, relative to compound 2
MDA-MB-435 = format: cell-based, human; conditions: 10^Δ2-x, relative to compound 2
U251 = format: cell-based, human; conditions: 10^Δ2-x, relative to compound 2
[4] = system: EWS-FLI1 transcription factor; conditions: compared to 1, as opposed to a non-specific promoter; cited from earlier work
MCF7 = format: cell-based, human; conditions: 10^Δ2-x, relative to compound 2
RPMI-8226 = format: cell-based, human; conditions: 10^Δ2-x, relative to compound 2
[5] = Assays of toxicity, maximum tolerated dose; conditions: in vivo
NCI-H226 = format: cell-based, human; conditions: 10^Δ2-x, relative to compound 2

Question: With `CO[C@@H]([C@@H]1Cc2cc3cc(O[C@H]4C[C@@H](O[C@H]5C[C@@H](O)[C@H](O)[C@@H](C)O5)[C@H](O)[C@@H](C)O4)c(C)c(O)c3c(O)c2C(=O)[C@H]1O[C@H]1C[C@@H](O[C@H]2C[C@@H](O[C@H]3C[C@H](O)[C@H](O)[C@@H](C)O3)[C@H](O)[C@@H](C)O2)[C@H](O)[C@@H](C)O1)[C@@H](O)C(C)=O` [Compound 9, demycarosyl-3D-β-D-digitoxosyl-mithramycin SK] as the molecule, how does the “tumor growth of COLO-205 colon xenografts” value [1] read?
Answer: The value was “reduced notably”.

Question: What about the activity improvement factor (SK-MEL-5) of the same molecule?
Answer: The activity improvement factor was 1.62.

Question: What about the activity improvement factor (SF-295) of the same molecule?
Answer: Its activity improvement factor is 2.00.

Question: And the activity improvement factor (UO-31)?
Answer: Its activity improvement factor is 2.40.

Question: And the “hollow fiber assay total score” value ([2]; 12 tumor cell lines, daily ip for four days)?
Answer: The value was 66/96.

Question: And the “hollow fiber assay intraperitoneal score” value ([2]; intraperitoneal implants)?
Answer: Its value is 36/48.

Question: What about the “hollow fiber assay subcutaneous score” value ([2]; subcutaneous implants) of the same molecule?
Answer: Its value is 30/48.

Question: And the activity improvement factor (UACC-62)?
Answer: The activity improvement factor was 1.02.

Question: What about the “fold less toxic than compound 3” value [3] of the same molecule?
Answer: The value was “about 2 fold”.

Question: What about the activity improvement factor (SK-MEL2) of the same molecule?
Answer: The activity improvement factor was 1.23.

Question: And the activity improvement factor (HCT-15)?
Answer: The activity improvement factor was 1.00.

Question: What about the activity improvement factor (MDA-MB-435) of the same molecule?
Answer: The activity improvement factor was 1.82.

Question: And the activity improvement factor (U251)?
Answer: The activity improvement factor was 1.26.

Question: And the “inhibition of luciferase activity driven by NRB01” value [4]?
Answer: The value was “inhibits more effectively”.

Question: And the activity improvement factor (MCF7)?
Answer: The activity improvement factor was 0.92.

Question: And the activity improvement factor (RPMI-8226)?
Answer: The activity improvement factor was 0.73.

Question: What about the “fold less toxicity than parental compound 1, single treatment” value [5] of the same molecule?
Answer: The value was “about 32 fold”.

Question: And the activity improvement factor (NCI-H226)?
Answer: The activity improvement factor was 2.26.
